Calls of active or inactive are those of the source. Where only a bound is given, the exact number is not on record here.

Consider 34 compounds from ChEMBL document CHEMBL1201862, “PubChem BioAssay data set” (2004).

A short description of test [1]: Luminescence Cell-Based Dose Response HTS to Identify Inhibitors of 5'UTR Stem-Loop Driven Prion Protein mRNA Translation in H4 Neuroglioblastoma Cells. [Related pubchem assays: 1827 (Project Summary), 1813 (Primary HTS)]. The class given is functional.
Test [2] can be described thus: luciferase reporter signal suppression in cells – H4 neuroglioma cells, luminescence, dose response (AID 1990). The class given is functional, cell-based.
A short description of test [3]: alpha-synuclein stem-loop luciferase translation blockers – H4 neuroglioma cells, luminescence, confirmation (AID 1988). Type of test: functional, cell-based.
A short description of test [4]: reduction of Shn3 3'UTR-driven luciferase in osteoblasts – cell-based, Clone20 osteoblasts, firefly luciferase, cherry-picked, dose response (AID 624132).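 Note: firefly luciferase luminescence from reporter carrying the Shn3 3'UTR in osteoblasts.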 The class given is functional.
The subject of another test is Streptococcus. In words: GAS UMAA2166 growth inhibition – luminescence, BacTiterGlo, counter-screen for streptokinase expression inhibitor project, dose response (AID 1915).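 Note: potency for reduction of bacterial viability or growth.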 Type of test: functional, organism-based.
The nature of another test: cells. The class given is functional.
Test [5] concerns Streptococcus sp. 'group A'. In words: Streptococcus pyogenes SK(-)GAS viability under kanamycin – luminescence, BacTiterGlo, confirmation, counter-screen for streptokinase expression inhibitor project, dose response (AID 1900). The class given is functional, organism-based. On the technique in general: A counterscreen serves to expose hits that act by an unwanted route or on another target.

A further test has as its target Cytochrome P450 3A4 (Homo sapiens, UniProt P08684).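 Note: CYP3A4 tested as one member of a cytochrome P450 panel screen.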
The target of another test is Cytochrome P450 2D6 (Homo sapiens, UniProt P10635).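 Note: CYP2D6 member of a cytochrome P450 panel assay.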
Cytochrome P450 2D6, sequence (P10635 whole entry): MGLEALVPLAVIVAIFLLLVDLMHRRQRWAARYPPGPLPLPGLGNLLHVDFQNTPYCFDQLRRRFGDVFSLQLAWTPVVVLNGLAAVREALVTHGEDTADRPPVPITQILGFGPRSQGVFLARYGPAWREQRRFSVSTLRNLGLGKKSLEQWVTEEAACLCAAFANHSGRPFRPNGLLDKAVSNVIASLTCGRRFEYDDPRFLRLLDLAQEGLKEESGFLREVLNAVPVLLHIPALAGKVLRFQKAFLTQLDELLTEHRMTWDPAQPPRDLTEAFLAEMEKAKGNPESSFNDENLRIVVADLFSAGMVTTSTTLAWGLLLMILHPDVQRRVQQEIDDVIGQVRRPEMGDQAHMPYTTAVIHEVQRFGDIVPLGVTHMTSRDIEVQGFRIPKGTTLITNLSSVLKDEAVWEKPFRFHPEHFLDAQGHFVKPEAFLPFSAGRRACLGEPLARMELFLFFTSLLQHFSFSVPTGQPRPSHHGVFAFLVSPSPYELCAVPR
A further test addresses Cytochrome P450 2C9 (Homo sapiens, UniProt P11712).
In the next test the test system is H4. Description: Luminescence Cell-Based Dose Response HTS to Identify Activators of 5'UTR Stem-Loop Driven Prion Protein mRNA Translation in H4 Neuroglioblastoma Cells. [Related pubchem assays: 1829 (Project Summary), 1814 (Primary HTS)]. Particulars: Homo sapiens. Type of test: functional.
Test [6] can be described thus: Luminescence Cell-Based Dose Response HTS to Identify Activators of Luciferase Translation or Activity in H4 […] Cells. [Related pubchem assays: 1829 (Project Summary), 1814 (Primary HTS)]. The class given is functional.
The target in a further test is T1, Cytochrome P450 1A2 (Homo sapiens, UniProt P05177).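 Note: PubChem cytochrome P450 panel assay, CYP1A2 panel member.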
T1 sequence (P05177 whole entry): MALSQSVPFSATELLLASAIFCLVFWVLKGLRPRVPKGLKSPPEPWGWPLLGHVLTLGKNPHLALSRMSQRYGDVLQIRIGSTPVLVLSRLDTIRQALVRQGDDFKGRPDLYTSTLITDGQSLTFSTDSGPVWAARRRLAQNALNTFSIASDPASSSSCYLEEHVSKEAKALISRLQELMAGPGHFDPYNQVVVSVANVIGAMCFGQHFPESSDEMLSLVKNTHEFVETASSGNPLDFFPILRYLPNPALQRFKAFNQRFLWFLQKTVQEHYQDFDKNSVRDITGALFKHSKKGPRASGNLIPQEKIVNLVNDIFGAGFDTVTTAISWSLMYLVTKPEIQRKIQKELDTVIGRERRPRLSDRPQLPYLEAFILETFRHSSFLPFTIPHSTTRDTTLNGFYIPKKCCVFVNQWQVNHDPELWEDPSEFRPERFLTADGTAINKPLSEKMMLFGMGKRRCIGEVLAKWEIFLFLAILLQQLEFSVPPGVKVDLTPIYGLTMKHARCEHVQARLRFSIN

Test [7] in a line: Luminescence Cell-Based Dose Confirmation HTS to Identify Activators of 5'UTR Stem-Loop Driven Alpha-Synuclein mRNA Translation in H4 Neuroglioblastoma Cells. [Related pubchem assays: 1829 (Project Summary), 1814 (Primary HTS)]. The class given is functional.
In test [8] the target is T2, Carboxy-terminal domain RNA polymerase II polypeptide A small phosphatase 1 (Homo sapiens, UniProt Q9GZU7).
T2 sequence (Q9GZU7 whole entry): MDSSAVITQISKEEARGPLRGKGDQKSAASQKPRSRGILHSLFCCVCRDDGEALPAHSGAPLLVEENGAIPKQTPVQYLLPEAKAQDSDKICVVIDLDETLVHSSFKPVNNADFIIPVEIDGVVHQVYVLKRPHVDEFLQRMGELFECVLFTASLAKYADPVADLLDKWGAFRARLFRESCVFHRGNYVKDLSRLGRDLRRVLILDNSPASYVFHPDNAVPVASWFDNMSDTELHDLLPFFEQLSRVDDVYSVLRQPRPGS
Description: CTDSP1 inhibitors, concentration-response, biochemical, absorbance readout, ultra-high-throughput screen actives (AID 540297). The class given is functional.

Test [9] concerns the target T3, Polyadenylate-binding protein 1 (Homo sapiens, UniProt P11940). In words: MLLE domain peptide-binding blockers, IC50 – biochemical, fluorescence polarization, FITC-PAM2 peptide, dose response (AID 602259). Type of test: functional. Particulars: read-out: IC50_Mean. Background: Fluorescence polarisation rises when a labelled molecule tumbles more slowly, as on binding a larger partner.

Test [10] deals with T3, Polyadenylate-binding protein 1. In words: MLLE binding blockers, Cy5 peptide tracer – biochemical, fluorescence polarization, Cy5-PAM2 peptide, secondary, miRNA deadenylation inhibitor project, dose response (AID 602260). Conditions: read-out: IC50_Mean. The class given is functional.
Test [11] has as its target T4, Heat shock factor protein 1 (Mus musculus, UniProt P38532).
T4 sequence (P38532 whole entry): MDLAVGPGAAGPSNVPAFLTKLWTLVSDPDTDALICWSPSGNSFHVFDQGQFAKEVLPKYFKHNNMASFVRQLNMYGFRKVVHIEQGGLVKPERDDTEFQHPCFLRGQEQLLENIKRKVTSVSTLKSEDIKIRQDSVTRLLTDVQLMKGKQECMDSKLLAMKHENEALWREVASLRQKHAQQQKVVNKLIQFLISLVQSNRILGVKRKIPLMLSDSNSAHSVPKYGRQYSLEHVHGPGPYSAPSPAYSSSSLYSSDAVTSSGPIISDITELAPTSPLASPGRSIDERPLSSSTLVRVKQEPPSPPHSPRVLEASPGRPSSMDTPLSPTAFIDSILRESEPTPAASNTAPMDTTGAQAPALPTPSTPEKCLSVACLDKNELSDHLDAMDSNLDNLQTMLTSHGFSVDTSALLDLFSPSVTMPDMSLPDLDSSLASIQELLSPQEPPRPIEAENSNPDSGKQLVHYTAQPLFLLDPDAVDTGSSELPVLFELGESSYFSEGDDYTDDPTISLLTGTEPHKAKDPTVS
In words: decrease of HSF1-responsive luciferase luminescence – cell-based, NIH3T3, dose retest, confirmation (AID 2382).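 Note: NIH3T3 fibroblasts with HSF1-driven luciferase reporter stressed by proteasome inhibitor MG132; luminescence from HSF1-driven luciferase expression after 8 hours of MG132 stress.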 Type of test: functional.

The target in another test is Cytochrome P450 2C19 (Homo sapiens, UniProt P33261). In words: Cytochrome panel assay with activity outcomes. Panel member name: p450-cyp2c19 Compounds with AC50 equal or less than 10 uM are considered active. Particulars: read-out: AC50. Type of test: functional.
Cytochrome P450 2C19, sequence (P33261 whole entry): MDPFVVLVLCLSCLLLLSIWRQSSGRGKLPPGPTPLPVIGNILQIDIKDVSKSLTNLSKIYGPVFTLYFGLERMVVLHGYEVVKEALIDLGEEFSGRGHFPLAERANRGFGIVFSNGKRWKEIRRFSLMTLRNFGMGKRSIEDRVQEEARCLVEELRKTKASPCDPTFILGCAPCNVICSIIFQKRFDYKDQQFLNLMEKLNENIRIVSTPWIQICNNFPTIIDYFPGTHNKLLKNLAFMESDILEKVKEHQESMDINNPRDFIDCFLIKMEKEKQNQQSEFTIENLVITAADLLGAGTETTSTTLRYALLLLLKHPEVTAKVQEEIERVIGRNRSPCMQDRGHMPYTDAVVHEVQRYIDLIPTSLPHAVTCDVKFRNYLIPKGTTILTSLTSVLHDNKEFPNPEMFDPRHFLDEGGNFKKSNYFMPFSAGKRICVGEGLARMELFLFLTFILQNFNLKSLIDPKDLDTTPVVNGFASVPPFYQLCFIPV

Cytochrome P450 2C9, sequence (P11712 whole entry): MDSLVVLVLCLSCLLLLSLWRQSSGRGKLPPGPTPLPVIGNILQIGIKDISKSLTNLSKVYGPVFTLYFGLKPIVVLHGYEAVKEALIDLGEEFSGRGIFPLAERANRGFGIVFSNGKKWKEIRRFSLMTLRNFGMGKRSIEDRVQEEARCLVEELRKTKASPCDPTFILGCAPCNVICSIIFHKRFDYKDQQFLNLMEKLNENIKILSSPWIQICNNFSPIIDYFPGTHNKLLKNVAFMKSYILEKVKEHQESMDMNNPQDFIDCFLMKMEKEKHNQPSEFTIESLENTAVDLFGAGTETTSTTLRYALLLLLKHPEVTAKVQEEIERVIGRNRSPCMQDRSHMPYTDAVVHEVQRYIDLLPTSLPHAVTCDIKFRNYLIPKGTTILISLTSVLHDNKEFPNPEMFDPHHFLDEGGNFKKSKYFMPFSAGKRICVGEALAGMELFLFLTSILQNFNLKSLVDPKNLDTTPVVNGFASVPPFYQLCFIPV
T3 sequence (P11940 whole entry, the tested form may be a part): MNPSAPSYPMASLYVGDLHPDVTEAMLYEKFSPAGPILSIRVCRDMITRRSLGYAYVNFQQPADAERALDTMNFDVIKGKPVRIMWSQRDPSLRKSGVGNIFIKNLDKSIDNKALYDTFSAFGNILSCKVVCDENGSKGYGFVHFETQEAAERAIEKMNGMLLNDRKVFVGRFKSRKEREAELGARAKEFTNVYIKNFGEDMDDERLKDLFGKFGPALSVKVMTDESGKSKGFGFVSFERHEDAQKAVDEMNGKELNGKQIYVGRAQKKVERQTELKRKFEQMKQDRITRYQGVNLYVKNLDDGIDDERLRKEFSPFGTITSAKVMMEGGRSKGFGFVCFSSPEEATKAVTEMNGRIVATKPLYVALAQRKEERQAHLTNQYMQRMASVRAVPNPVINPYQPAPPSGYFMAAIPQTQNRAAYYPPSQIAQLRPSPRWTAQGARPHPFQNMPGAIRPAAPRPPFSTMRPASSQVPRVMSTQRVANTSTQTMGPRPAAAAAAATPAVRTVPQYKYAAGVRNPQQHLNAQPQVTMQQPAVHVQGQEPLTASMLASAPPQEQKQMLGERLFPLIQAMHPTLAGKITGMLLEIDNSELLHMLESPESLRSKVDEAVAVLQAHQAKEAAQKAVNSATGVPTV
Cytochrome P450 3A4, sequence (P08684 whole entry): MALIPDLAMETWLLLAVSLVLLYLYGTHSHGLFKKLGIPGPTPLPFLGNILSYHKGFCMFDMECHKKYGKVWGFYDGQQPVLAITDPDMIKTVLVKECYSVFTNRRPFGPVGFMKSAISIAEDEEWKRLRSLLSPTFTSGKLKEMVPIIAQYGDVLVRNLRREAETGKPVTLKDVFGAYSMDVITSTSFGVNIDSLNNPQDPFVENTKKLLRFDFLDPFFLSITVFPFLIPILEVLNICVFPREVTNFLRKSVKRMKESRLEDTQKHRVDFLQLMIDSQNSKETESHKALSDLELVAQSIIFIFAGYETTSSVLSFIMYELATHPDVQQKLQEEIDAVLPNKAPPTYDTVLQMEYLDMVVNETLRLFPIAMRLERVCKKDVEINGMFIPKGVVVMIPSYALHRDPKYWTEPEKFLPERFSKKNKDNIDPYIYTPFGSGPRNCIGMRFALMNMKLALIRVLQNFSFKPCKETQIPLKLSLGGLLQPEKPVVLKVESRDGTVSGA

As for `Cc1ccc(NC(=O)C2C3CCCC2C3c2ccccc2)c(C)c1` (stereo not drawn), the EC50 in test [1], in [2] and in test [3] was > 120 µM (not active) throughout.
For the compound `O=C(NCCNc1ccc([N+](=O)[O-])cc1Cl)c1ccccc1F`, the EC50 (in general, the concentration needed to bring the measured effect to its halfway point) in test [1] was 26.4 µM (active); in [2], > 120 µM (not active); in [3], 76.3 µM (active).
Take `CCN(CC)C(=O)[C@H]1C[C@H](CC(=O)NC/C=C(\C)CCC=C(C)C)C(=O)N2CCc3c([nH]c4cc(CCC(=O)N(C)C)ccc34)[C@]12C`: the AC50 (in general, the concentration giving half of the maximal activity seen) in test [4] was 1.37 µM (active).
Regarding `O=C1N=C(Nc2ccccn2)SC1Cc1ccc(Cl)cc1` (stereo not drawn), the EC50 with Streptococcus was > 150 µM (not active); in [5], 83.8 µM (active). In “cells”, the IC50 was > 25 µM (active).
Regarding `CCOC(=O)c1cnn(-c2ccc(C(C)C)cc2)c1NC(=O)C1CCC1`, the AC50 on Cytochrome P450 3A4 is 39.8 µM (inconclusive); at Cytochrome P450 2D6 it was 8.91 µM (inconclusive); on Cytochrome P450 2C9, 39.8 µM (inconclusive); at Cytochrome P450 1A2, 14.1 µM (inconclusive). For the same compound, the values for the EC50 (in the test with H4; in [6]; in test [7]) were > 120 µM (not active), 18.9 µM (active) and 13.4 µM (active), respectively.
Take `Cc1cc(NC(=O)CSc2sc3c(O)cc(=O)[nH]c3c2C#N)ccc1Br`: the IC50 in [8] was 3.74 µM (active).
Turning to `CCOC(=O)c1c(NC(=O)C2(C)Cc3ccccc3C(=O)O2)sc2c1CCCC2` (stereo not drawn), the IC50 in [9] and in test [10] was > 66 µM (inactive) in each case.
As to `CCCOC(=O)c1ccc(NC(=O)c2ccccc2OC)cc1`, in the test “cells”, the IC50 was 11.3 µM (active).
Take `Cc1nn(C(C)(C)C)c(OC(=O)c2ccco2)c1Sc1ccccc1`: the AC50 at Cytochrome P450 3A4 is 39.8 µM (inconclusive); at Cytochrome P450 1A2, 14.1 µM (inconclusive).
For the compound `CCOC(=O)c1cc(-c2ccccc2)nc2nc(N3CCCCC3)sc12`, the EC50 in [1] was 24.3 µM (active); in [2], 14.8 µM (active); in test [3] it was 103 µM (active).
Consider `CCCC(=O)Nc1cccc(-c2nc3ccccc3c(=O)o2)c1`, for which the IC50 in “cells” was 10.4 µM (active).
Regarding `Cc1onc(-c2c(F)cccc2Cl)c1C(=O)NC(=S)Nc1c(C)n(C)n(-c2ccccc2)c1=O`, the IC50 in test [9] and in test [10] was > 66 µM (inactive) in each case.
Take `S=C(c1ccc(N2CCOCC2)cc1)N1CCOCC1`: in test [11], the EC50 is on record as > 195 µM (not active). The IC50 in test [9] and in [10] was > 66 µM (inactive) throughout.
For `CC1CC(C)CN(C(=O)CNS(=O)(=O)c2ccc(Br)s2)C1` (stereo not drawn), the AC50 at Cytochrome P450 3A4 was 11.2 µM (inconclusive); on Cytochrome P450 2C9, 10 µM (inconclusive); on Cytochrome P450 1A2 it was 15.8 µM (inconclusive).
With `Cc1noc(C)c1-c1cncnc1NCCN1CCOCC1`, the AC50 on Cytochrome P450 2C19 is 0.0398 µM (inconclusive); at Cytochrome P450 1A2, 31.6 µM (inconclusive).
Turning to `O=c1c(-c2ccccc2)nc2cnc(N3CCOCC3)nc2n1CCc1ccccc1`, the AC50 at Cytochrome P450 3A4 was 31.6 µM (inconclusive); on Cytochrome P450 1A2, 12.6 µM (inconclusive).
Take `CCOC(=O)c1cc(COc2cc(Cl)cc(Cl)c2)on1`: the IC50 in the test “cells” is 1.97 µM (active).
Take `O=C(CSC1=NC2(CCCCC2)N=C1c1ccccc1)Nc1ccc2c(c1)OCCO2`: the IC50 in test [9] and in [10] was > 66 µM (inactive) each time.
As for `Cc1cc(Cn2cnc3c2C[C@@H](C(=O)O)N(C(=O)C(c2ccccc2)c2ccccc2)C3)ccc1N(C)C`, the AC50 is 39.8 µM (inconclusive) on Cytochrome P450 2D6 and 25.1 µM (inconclusive) on Cytochrome P450 1A2.
Regarding `Cc1ccc(C(=O)Nc2cccc(C(F)(F)F)c2)cc1NC(=O)c1cnnc2ccccc12`, the results for the EC50 in test [1], in [2] and in test [3] were 18.9 µM (active), 13.2 µM (active) and > 120 µM (not active), respectively.
In the case of `COCCCNC(=O)c1ccc(Cn2c(=O)c3ccccc3n(Cc3ccccc3C#N)c2=O)cc1`, the EC50 is > 120 µM (not active) in test [1], 20.7 µM (active) in test [2] and > 120 µM (not active) in [3].
Regarding `Cc1cc([C@](C)(N)C(=O)O)ccc1P(=O)(O)O`, the AC50 on Cytochrome P450 2D6 was 12.6 µM (inconclusive); at Cytochrome P450 1A2 it was 31.6 µM (inconclusive).
As to `O=C(c1cnccn1)N1CCC[C@@]2(CCN(C(c3ccccc3)c3ccccc3)C2)C1`, the AC50 at Cytochrome P450 3A4 is 2.51 µM (inconclusive); at Cytochrome P450 1A2, 15.8 µM (inconclusive).
`Cc1ccc(C2=[N+]([O-])C3(CCCCC3=O)N(O)C2(C)C)cc1` (stereo not drawn): the EC50 in test [1] is > 120 µM (not active); in test [2], > 120 µM (not active); in [3], 42.6 µM (active).
Turning to `Cc1nc2ccccn2c1C(=O)C1=C(O)C(=O)N(CCN(C)C)C1c1ccco1` (stereo not drawn), the IC50 in test [9] and in [10] was > 66 µM (inactive) throughout.
Regarding `O=C(Cc1ccc(Cl)cc1)OCC(=O)c1ccc[nH]1`, the IC50 in the test “cells” was 18.8 µM (active).
With `COc1ccc(N/N=C2/CCCCC2=O)cc1`, the IC50 in [9] and in [10] was > 66 µM (inactive) throughout.
As for `CC(C)(C)C1CCc2onc(C(=O)Nc3cnn(Cc4ccc(F)cc4)c3)c2C1` (stereo not drawn), the values for the EC50 in test [1], in [2] and in [3] were 23.3 µM (active), 28.2 µM (active) and > 120 µM (not active), respectively.
Regarding `CCCn1c(=O)c(C(=O)N/N=C/c2ccccc2F)c(O)c2ccccc21`, the IC50 in the test “cells” is 48.2 µM (active).
With `O=C(CCCCCNC(=O)c1ccccc1)N/N=C/c1ccco1`, in [8], the IC50 was 29.2 µM (active).
As for `COc1ccccc1/C=N/N=C(/Nc1ccc(C)cc1)c1nc2ccccc2s1`, the AC50 was 17.8 µM (inconclusive) on Cytochrome P450 3A4, 17.8 µM (inconclusive) at Cytochrome P450 2C9 and 14.1 µM (inconclusive) on Cytochrome P450 1A2.
For `COc1ccccc1/C=C/C=N/NC(=O)c1ccncc1`, the IC50 in the test “cells” was 0.44 µM (active).
As for `O=C1c2c(O)cc(O)cc2O[C@@H](c2ccc(O)c(O)c2)[C@H]1O` [(+)-EPITAXIFOLIN], the AC50 on Cytochrome P450 1A2 is 15.8 µM (inconclusive).
The same measure, in the same setting: as for `O=C(O)CNC(=O)c1ccccc1O` [SALICYLURIC ACID], the figure is 5.01 µM (inconclusive).
